Measurements: article PMC8688997, “Five Constituents Contributed to the Psoraleae Fructus-Induced Hepatotoxicity via Mitochondrial Dysfunction and Apoptosis” (Frontiers in Pharmacology, 2021)
“Also recorded” adds a separate entry of the source. Where two headings read alike, the source gives them in different places. One block for each compound: values may come before it.

Key:
[1] = tested on: L02 cells; experiment: Annexin V-FITC/PI flow cytometry apoptosis assay, L02 cells; format: cell-based, human; conditions: 48 h
Experimental: (§1) First, L02 and HepG2 cells were cultured in 6-well plates at a density of 5 × 10^5 cells/well. Then, they were treated with bavachin (17, 34, and 68 μmol/L), psoralidin (11.5, 23, and 46 μmol/L), bavachinin (15, 30, and 60 μmol/L), neobavaisoflavone (23.5, 47, and 94 μmol/L), and bakuchiol (13, 26, and 52 μmol/L) for 48 h, harvested, and washed with PBS. The apoptosis rate was measured using Pharmingen™ FITC Annexin V Apoptosis Detection Kit I (BD, 556,547, USA) following the instructions from the manufacturer. With the use of a FACSCalibur cytometer (Becton Dickinson, San Jose, CA, USA), 1 × 10^4 cells were acquired and analyzed.

[2] = tested on: HepG2 cells; experiment: HCS CellROX Deep Red ROS assay, HepG2 cells; format: cell-based, human
Experimental: (§2) Here, L02 and HepG2 cells were plated at a density of […] in 96-well plates. Then, they were treated with bavachin (17, 34, and 68 μmol/L), psoralidin (11.5 23, and 46 μmol/L), bavachinin (15, 30, and 60 μmol/L), neobavaisoflavone (23.5, 47, and 94 μmol/L), and bakuchiol (13, 26, and 52 μmol/L) for 24 h. Then Hoechst 33342, eBioscience™ JC-1 Mitochondrial Membrane Potential Dye, CellROX Deep Red, and HCS LipidTOX™ Green Phospholipidosis Detection Reagent kits were used to characterize their cell counts, nuclear area, MMP, ROS, and intracellular lipid. Consequently, multi-parameter cytotoxicity was analyzed through high-content screening (HCS) analysis (IN Cell Analyzer 2500 HS; Cytiva, Marlborough, MA, USA). Then, a 20× objective was used to collect all images. Three independent wells were examined for each treatment, and 16 fields per well were captured during the analysis. Lastly, HCS analysis was performed using Automated Image and Cell Analysis software (IN Cell Analyzer 2000; USA).

[3] = tested on: L02 and HepG2 cells; format: cell-based; conditions: human, 24 h
Experimental: as §2

[4] = tested on: L02 and HepG2 cells; format: cell-based, human
Experimental: (§3) L02 and HepG2 cells were cultured in 6-well plates at a density of 2 × 10^5 cells/well. Subsequently, they were incubated with bavachin, psoralidin, bavachinin, neobavaisoflavone, and bakuchiol for 24 h, and the cell supernatant was collected. Lastly, aspartate aminotransferase (AST), alanine aminotransferase (ALT), and ALP were detected using a CX4 Pro automatic biochemical analyzer (Beckman, Brea, CA, USA).

[5] = tested on: HepG2 cells; experiment: CCK-8 cell viability assay, HepG2 cells; format: cell-based, human
Experimental: (§4) L02 and HepG2 cells were purchased from the China Infrastructure of Cell Line Resources (Beijing, China). They were cultured in Dulbecco’s modified Eagle’s medium (DMEM) high glucose medium (Gibco, Grand Island, NY, USA) supplemented with 10% (v/v) fetal bovine serum (FBS) (Gibco, Melbourne, VIC, Australia) and 1% U/ml of antibiotics (penicillin and streptomycin) at 37°C in an atmosphere containing 5% CO2.
(§5) The viability of L02 and HepG2 cells was determined using the CCK-8 assay. L02 and HepG2 cells (1 × 10^4 cells/well) were seeded into 96-well plates for 12 h until they visibly reached confluence. Then, the adherent cells were treated with varying concentrations of psoralen (120.86, 161.34, 215.12, 286.83, 382.44, 509.92, 679.90, and 906.53 μmol/L), isopsoralen (161.15, 214.87, 286.64, 382.47, 509.88, 679.85, 906.53, and 1,208.64 μmol/L), bavachin (16.40, 21.95, 29.23, 38.97, 52.04, 69.37, 92.49, and 123.32 μmol/L), psoralidin (8.92, 11.89, 15.82, 21.17, 28.19, 37.58, 50.19, and 66.90 μmol/L), bavachinin (11.82, 15.72, 21.04, 28.01, 37.35, 49.88, 66.49, and 88.65 μmol/L), neobavaisoflavone (5.21, 9.30, 16.50, 29.41, 52.36, 93.07, 165.53, and 294.46 μmol/L), and bakuchiol (11.70, 15.60, 20.75, 27.77, 36.97, 49.30, 65.84, and 87.76 μmol/L). Consequently, these cells were incubated for 24 h, and 100 μl of 10% (v/v) CCK-8 medium solution was added to each well for 2 h. The absorbance (optical density (OD)) of the culture medium was detected at 450 nm using a Multiskan GO microplate reader (Thermo Fisher Scientific). Each experiment was repeated thrice, and each treatment was probed in at least six wells. The following equation was used to calculate the viability of the cells (%): Cell Viability (%)=ODcompound−ODblank/ODcontrol−ODblank×100%

[6] = tested on: L02 and HepG2 cells; experiment: CCK-8 cell viability assay, L02 and HepG2 cells not distinguished; format: cell-based, human; conditions: for IC50: read-out: IC50 value (approximate, discussion); for effect on cell viability / hepatocyte toxicity (in words): L02 and HepG2 cells
Experimental: as §4
The viability of L02 and HepG2 cells was determined using the CCK-8 assay. L02 and HepG2 cells (1 × 10^4 cells/well) were seeded into 96-well plates for 12 h until they visibly reached confluence. […] Consequently, these cells were incubated for 24 h, and 100 μl of 10% (v/v) CCK-8 medium solution was added to each well for 2 h. The absorbance (optical density (OD)) of the culture medium was detected at 450 nm using a Multiskan GO microplate reader (Thermo Fisher Scientific). Each experiment was repeated thrice, and each treatment was probed in at least six wells. The following equation was used to calculate the viability of the cells (%): Cell Viability (%)=ODcompound−ODblank/ODcontrol−ODblank×100%

[7] = tested on: L02 and HepG2 cells; experiment: Annexin V-FITC/PI flow cytometry apoptosis assay, L02 and HepG2 cells not distinguished; format: cell-based, human
Experimental: as §1

[8] = tested on: L02 cells; experiment: HCS LipidTOX Green intracellular lipid assay, L02 cells; format: cell-based, human; conditions: 24 h
Experimental: as §2

[9] = tested on: L02 cells; experiment: CCK-8 cell viability assay, L02 cells; format: cell-based, human
Experimental: as §4, §5

[10] = tested on: HepG2 cells; experiment: HCS LipidTOX Green intracellular lipid assay, HepG2 cells; format: cell-based, human; conditions: 24 h
Experimental: as §2

[11] = tested on: L02 cells; experiment: ALP, ALT and AST in cell culture supernatant, L02 cells; format: cell-based, human
Experimental: as §3

[12] = tested on: L02 and HepG2 cells; experiment: HCS LipidTOX Green intracellular lipid assay, L02 and HepG2 cells not distinguished; format: cell-based, human
Experimental: as §2

[13] = tested on: L02 cells; experiment: HCS CellROX Deep Red ROS assay, L02 cells; format: cell-based, human; conditions: only at 68 μmol/L, 24 h
Experimental: as §2

[14] = tested on: HepG2 cells; design: method as in Yu et al., 2020; conditions: another report; ref Yu et al., 2020; read-out: concentration inhibiting 50% cell viability; cited from earlier work
[15] = tested on: HepG2 cells; experiment: ALP, ALT and AST in cell culture supernatant, HepG2 cells; format: cell-based, human; conditions: 46 μmol/L, 24 h
Experimental: as §3

[16] = tested on: L02 and HepG2 cells; experiment: HCS JC-1 mitochondrial membrane potential (MMP) assay, L02 and HepG2 cells; format: cell-based, human; conditions: 60 μmol/L; 24 h
Experimental: as §2

[17] = Homo sapiens, HepG2, CCK-8, incubation 24 h or 48 h, read-out: IC50 toward HepG2 cells
[18] = Homo sapiens, HepG2, cell line not distinguished
[19] = Homo sapiens, L02, CCK-8, incubation 24 h or 48 h, read-out: IC50 toward L02 cells

Compound: C=C[C@@](C)(/C=C/c1ccc(O)cc1)CCC=C(C)C [Bakuchiol, bakuchiol]
- necrotic cell percentages ([1]; 52 μmol/L, Figure 7I): 34.6%
- ROS generation [2]: promoted ROS generation
- effect on ROS induction, L02 cells compared with HepG2 cells ([3]; 52 μmol/L): stronger effect on ROS induction in L02 cells than HepG2 cells
- effect on ALP, ALT, and AST contents (in words, discussion) [4]: little effect
- increase of ALP, ALT, and AST levels (discussion) [4]: five times
- IC50 [5, 17]: 34.5 µM
- IC50 [6, 18]: ~25 µM
- effect on cell viability / hepatocyte toxicity (in words) [6]: more potent inhibitory effects on cell viability than other compounds
- cell early apoptosis percentage [7]: markedly and progressively increased
- effect on cell apoptosis (in words) [7]: induced apoptosis in a dose-dependent manner
- lipid accumulation, times higher than control ([8]; 13 μmol/L): 1.88 times
- lipid accumulation, times higher than control ([8]; 26 μmol/L): 2.18 times
- lipid accumulation, times higher than control ([8]; 52 μmol/L): 3.37 times
- IC50 [9, 19]: 25.9 µM
- lipid accumulation, times higher than control ([10]; first of three doses (13 μmol/L)): 1.27 times
- lipid accumulation, times higher than control ([10]; second of three doses (26 μmol/L)): 2.37 times
- lipid accumulation, times higher than control ([10]; third of three doses (52 μmol/L)): 5.84 times

Compound: CC(C)=CCc1cc2c(cc1O)O[C@H](c1ccc(O)cc1)CC2=O [Bavachin, bavachin]
- apoptotic cell percentage ([1]; L02 cells, increased from 6.7%, concentration not given): 44.47%
- ALP, ALT, and AST contents [11]: increased
- IC50 [5, 17]: 34.8 µM
- IC50 [6, 18]: ~30 µM
- effect on cell viability / hepatocyte toxicity (in words) [6]: intense repression of cell viability
- cell early apoptosis percentage [7]: markedly and progressively increased
- IC50 [9, 19]: 33.9 µM
- effect on lipid accumulation, L02 cells compared with HepG2 cells ([12]; human, 24 h, 68 μmol/L): stronger inducing effect on lipid accumulation in the HepG2 cells
- ROS level [13]: increased

Compound: O=c1ccc2ccc3occc3c2o1 [Isopsoralen, isopsoralen]
- IC50 ([5]; Homo sapiens, HepG2, read-out: IC50 toward HepG2 cells): 174 µM
- effect on cell viability / hepatocyte toxicity (in words) [6]: little hepatocyte toxicity; also recorded: very low or no toxicity
- IC50 ([9]; Homo sapiens, L02, read-out: IC50 toward L02 cells): 77.9 µM

Compound: CC(C)=CCc1cc(-c2coc3cc(O)ccc3c2=O)ccc1O [Neobavaisoflavone, neobavaisoflavone]
- ALP, ALT, and AST contents [11]: increased
- effect on ROS induction, L02 cells compared with HepG2 cells [3]: stronger effect on ROS induction in L02 cells than HepG2 cells
- IC50 [5, 17]: 51.7 µM
- effect on cell viability / hepatocyte toxicity (in words) [6]: intense repression of cell viability
- cell early apoptosis percentage [7]: markedly and progressively increased
- effect on cell apoptosis (in words) [7]: induced apoptosis in a dose-dependent manner
- IC50 [9, 19]: 47.8 µM

The next lines start with results.

- IC50 [5, 17]: 739 µM
Compound: O=c1ccc2cc3ccoc3cc2o1 [Psoralen, psoralen]
- IC50 [14]: ~400 µM
- effect on cell viability / hepatocyte toxicity (in words) [6]: very low or no toxicity
- effect on cell viability / hepatocyte toxicity (in words) ([6]; listed as psoralen): little hepatocyte toxicity
- IC50 [9, 19]: 284 µM

- IC50 [5, 17]: 23.4 µM
Compound: CC(C)=CCc1cc2c(cc1O)oc(=O)c1c3ccc(O)cc3oc21 [Psoralidin, psoralidin]
- increase of ALP, ALT, and AST levels (discussion) [4]: five times
- induction of ALP, ALT, and AST contents [4]: more than fivefold
- IC50 [6, 18]: ~25 µM
- effect on cell viability / hepatocyte toxicity (in words) [6]: more potent inhibitory effects on cell viability than other compounds
- effect on cell apoptosis (in words) [7]: little effect on cell apoptosis
- apoptotic cell percentage ([7]; 46 μmol/L, 48 h, Figure 7C,D): 17%
- ALP level, times higher than control [15]: 5.7 times
- AST level, times higher than control [15]: 5.4 times
- IC50 [9, 19]: 23.1 µM
- effect on lipid accumulation, L02 cells compared with HepG2 cells ([12]; human, 24 h): more substantial effect on lipid accumulation in L02 cells than HepG2 cells

- ROS level ([2]; HepG2 cells, 30 and 60 μmol/L, 24 h): increased
- MMP levels [16]: reduced
- IC50 ([5]; CCK-8, incubation 24 h or 48 h, read-out: IC50 toward HepG2 cells): 29.1 µM
Compound: bavachinin
- ALP, ALT, and AST contents ([11]; L02 cells, high dosage, 24 h): increased
- effect on cell viability / hepatocyte toxicity (in words) [6]: intense repression of cell viability
- IC50 ([6]; cell line not distinguished): ~30 µM
- cell apoptosis at low dose concentration ([7]; 15 μmol/L, 48 h): induced cell apoptosis
- cell early apoptosis percentage ([7]; as the concentration increased, compared with the control): markedly and progressively increased
- IC50 ([9]; CCK-8, incubation 24 h or 48 h, read-out: IC50 toward L02 cells): 29.8 µM
- effect on lipid accumulation, L02 cells compared with HepG2 cells ([12]; 60 μmol/L): more substantial effect on lipid accumulation in L02 cells than HepG2 cells
- lipid accumulation levels ([12]; L02 and HepG2 cells, 24 h, p < 0.05, p < 0.01): promoted lipid accumulation
